From patent publication US9629816B2, “Small molecule therapeutic compounds targeting thioesterase deficiency disorders and methods of using the same” (The United States of America, as represented by the …, priority 2011, dated 2017)
“And” between values parts separate entries of the source, which are not always exact repeats. Equal entries are not always repeated.

Legend:
[1] = test system: PPT1-KO mice; experiment: Western blot of ER-stress and oxidative-stress markers in brain lysates of PPT1-KO mice; format: in vivo, mouse
Method: Western blot analysis was performed as using standard methodology. Briefly 30 μg of protein was resolved in 4-12% Bis tris gel (Invitrogen) and electro-transferred in PVDF membrane. The membranes were blocked with 5% non fat dried milk for 1 hour at room temperature and were then probed overnight with primary antibody at 4 C. After washing the blots were incubated with horseradish peroxidase conjugated secondary antibody (Santacruz Biotechnology) for 1 hour at room temperature and developed using enhanced chemiluminescences detection reagents (Pierce). Primary antibodies used in this study were caspase-3, caspase-9 (cell signaling) SOD2, catalase, β-Actin (US Biologicals).
It has previously reported that endoplasmic reticulum (ER-) and oxidative-stress contribute to neuropathology in INCL patients. […] Therefore, the inventors sought to determine whether NtBuHA-treatment of PPT1-KO mice ameliorate the ER- and oxidative-stress in brain tissues of these mice. Accordingly, the levels of ER-stress markers Grp-78, Grp-94 and ATF6 were determined by Western blot analysis of brain lysates. […] Western blot analysis of brain lysates from NtBuHA-treated and untreated PPT1-KO mice was also performed to determine the levels of superoxide dismutase-2 (SOD2) and catalase, which increases with elevated oxidative-stress.

[2] = test system: PPT1-KO mice; experiment: TEM analysis of GRODs in brain cells of PPT1-KO mice; format: in vivo, mouse; conditions: PPT1-KO mice treated from 3 to 6 months of age, 1 mM in drinking water (FIG. 12)
Method: All animal experiments were performed according to the institutional guidelines after an animal protocol was approved by the Animal Care and Use Committee of the National Institute of Child Health and Development, National Institutes of Health. PPT1-KO mice (a gift from Dr. S. L. Hofmann, University of Texas Southwestern Medical Center at Dallas, Dallas, Tex., USA) were generated by targeted disruption of the last exon in the PPT1 gene in embryonic stem (ES) cells. These mice were subsequently backcrossed for 10 generations with wild type C57BL/6 mice in order to obtain congenic C57 background and a breeding pair was provided by Dr. Mark Sands to start the inventors' colony. Animals were housed and maintained in a pathogen-free facility. Three-month old PPT-KO mice were given NtBuHA in their drinking water (1 mM NtBuHA and 1 mM NaCl).
Cortical tissue sections were prepared from wild-type mice and untreated- as well as NtBuHA-treated PPT1-KO littermates. Cortical tissues (approximately 1 mm^3) were dissected from those animals, fixed in 2.5% glutaradlehyde in 0.1M sodium cacodylate buffer, pH 7.4 followed by three washing in 0.1 M sodium cacodylate buffer at room temperature. […]

[3] = test system: PPT1-KO mice; experiment: Toxicity of dietary NtBuHA in Ppt1-KO mice; format: in vivo, mouse
Text: Thus, toxicity of HA precludes its clinical use. However, HA-derivatives may be non-toxic. […] (See Table 1 for a listing of these HA-derivatives). […] (See Table 3).

[4] = test system: INCL lymphoblasts; experiment: TEM analysis of GRODs in cultured INCL lymphoblasts; format: cell-based, human
Method: Transmission electron microsocopy (TEM) of INCL lymphoblasts and fibroblasts was performed. Briefly, cells were first treated with 250 μM NtBuHA for 3 weeks. Medium was replaced with fresh 250 μM of NtBuHA at every 72 hours. After treatment, cells were fixed with 2.5% glutaraldehyde in sodium phosphate buffer, washed three times with Millonig's phosphate buffer and stained with 2.5% uranyl acetate. Ultra-thin sections were then prepared using AO Reichert Ultracut ultramicrotome, stained with lead citrate and examined by using Zeiss EM10 CA.
Accordingly, untreated- and NtBuHA-treated cultured INCL lymphoblasts were analyzed using TEM.
For a therapeutic agent to be effective for INCL it must not only mediate depletion of ceroid by cleaving thioester linkage in S-acylated proteins but it must also prevent re-accumulation of ceroid. […] Some of these cultures were washed with PBS and then cultured for an additional 3 weeks in medium without NtBuHA before being analyzed by TEM.

[5] = Cleavage of thioester linkage in [14C]palmitoyl-CoA, release of free [14C]palmitate (TLC, autoradiography); format: biochemical; conditions: varying concentrations; various incubation times; [14C]palmitate production
Method: It has been reported that thioester linkages in s-acylated proteins are labile, and that compounds having nucleophilic properties are able to disrupt such linkages. Thus, the ability of derivatives of hydroxylamine to disrupt thioester linkages in s-acylated proteins was tested. Twelve HA-derivatives, described in Table 1, were screened for their ability to cleave thioester linkage in [^14C]palmitoyl˜CoA (a model thioester substrate of PPT1), mediating the release of free [^14C]palmitic acid, a process depicted in FIG. 2. […] [^14C]-palmitoyl-CoA was incubated for 1 hour with each of the HA derivatives and the reaction mixture was resolved by thin layer chromatography (TLC) followed by autoradiography. The free [^14C]-palmitate bands were visible and quantitated by densitometric analysis of the bands.

[6] = test system: PPT1-KO mice; experiment: Blood methemoglobin level in PPT1-KO mice; format: in vivo, mouse
Method: The ability of the HA-derivative NtBuHA to increase methemoglobin levels was tested by placing PPT1-KO mice on a diet containing NtBuHA. After three months on the diet, the level of methemoglobin in the animal's blood was measured.

With `CC(C)(C)NO` [NtBuHA, N-(tert-Butyl)hydroxylamine] the “levels of SOD2 and catalase” value ([1]; brain lysates vs untreated PPT1-KO mice (FIG. 14B)) was “significantly reduced the levels of both SOD2 and catalase”, the “levels of ER-stress markers Grp-78, Grp-94 and ATF6” value ([1]; brain tissues (FIG. 14A)) was “levels of all three ER-stress markers were reduced” and the “GRODs in brain cells” value [2] was “markedly reduced number of GRODs”. The “toxicity in Ppt1-KO mice” value [3] was “showed no toxicity”, the “GRODs in INCL lymphoblasts” value ([4]; 250 μM for 3 weeks vs untreated controls (FIG. 9A-C)) was “either no GRODs, FIG. 9B, or a substantially reduced number of GRODs that were considerably smaller in size” and the “GRODs after withdrawal of treatment” value ([4]; 3 weeks treatment, then additional 3 weeks in medium without NtBuHA (FIG. 9D, 11)) was “withdrawal from the culture medium caused reaccumulation”. The “dose- and time-dependence of thioester linkage cleavage in [14C]palmitoyl-CoA” value [5] was “cleaved the thioester linkage in a dose-dependent and time-dependent manner”, the “% Methemoglobin” value ([6]; individual NtBuHA-treated PPT1-KO mice, three months on diet, blood) was 0% and 0.5% and 0.7% and 0.6% and the “% Methemoglobin, Mean” value ([6]; mean of 4 NtBuHA-treated PPT1-KO mice, three months on diet, blood) was 0.45%. For the same compound, the “effect on methemoglobin levels” value ([6]; treatment up to three months) was “does not increase methemoglobin levels”.
